{
  "source": "patent US10988533B2",
  "about": "“Anti-pre-BCR antagonists and methods” (STC.UNM, priority 2015, dated 2021)",
  "key": {"pre-BCR on 697 cells [1]": {"target": "T1, pre-BCR on 697 cells (Homo sapiens, UniProt P12018)", "T1 construct": "endogenous in cells; host or cells: 697 (BCP-ALL cell line)", "T1 sequence (P12018 20-145)": "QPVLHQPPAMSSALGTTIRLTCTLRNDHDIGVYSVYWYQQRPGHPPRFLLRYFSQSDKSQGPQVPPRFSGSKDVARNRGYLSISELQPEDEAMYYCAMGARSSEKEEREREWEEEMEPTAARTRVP", "assay": "Single Particle Tracking of pre-BCR diffusion on 697 cells", "assay_type": "cell-based", "settings": "Fab 1 μM, galectin-1 10 μM; for overall diffusion (mobility) of pre-BCR: relative to tonic signaling, inhibitors 1 μM", "protocol": "Data are reported as changed in ensemble diffusion coefficients (MSD) for pre-BCR plus and minus saturating levels of anti-VpreB1 Fabs (1 μM). In these experiments, Fabs were added to 697 cells for 15 minutes at 37° C. prior to performing Single Particle Tracking (SPT).\nSuspension cultures of BCP-ALL cell lines (697, Nalm6) were grown in RPMI 1640 with phenol red (Sigma-Aldrich, St. Louis, Mo.), with 10% (v/v) HI FBS, 1% Penicillin/Streptomycin (Gibco, Gaithersburg, Md.), and L-Glutamine 2 mM. Patient samples were cultured in IMDM, GlutaMAX medium (Gibco, Gaithersburg, Md.) supplemented with 20% (v/v) HI FBS, 1% penicillin/streptomycin, 1× insulin, transferrin and selenium (Gibco, Gaithersburg, Md.), 1 mM sodium pyruvate (Gibco, Gaithersburg, Md.), and 55 μM 2-Mercaptoethanol (Gibco, Gaithersburg, Md.). Prior to experiments, cells were washed twice with Tyrode's solution (Sigma-Aldrich, St. Louis, Mo.). Unless otherwise stated, cells were pretreated for 10 minutes with Bay-61-3606 (Santa Cruz Biotechnology, Inc., Dallas, Tex.; 1 μM), dasatinib (Santa Cruz Biotechnology, Inc., Dallas, Tex.; 1 μM), tofacitinib (Selleck Chemicals LLC, Houston, Tex.; 1 μM), anti-VpreB Fab (1 μM), 3AC (Echelon Biosciences, Inc., Salt Lake City, Utah), and/or recombinant galectin-1 (PreproTech, Inc., Rocky Hill, N.J.; 10 μM), +/− lactose.\nLAB-TEK imaging chambers (ThermoFisher Scientific, Waltham, Mass.) were coated with poly-1-lysine hydrobromide (Sigma-Aldrich, St. Louis, Mo.) at 1 mg/ml in sterile water for 20 minutes at room temperature, followed by three washes. BCP-ALL cells were serum-starved in RPMI 1640 without FBS for two hours prior to being added to coated wells and incubated for 15 minutes at 37° C. QD-Fab-CD79b or QD-Fab-IgM were added at 100 pM in Tyrodes's solution (Sigma-Aldrich, St. Louis, Mo.) with 0.1% (w/v) BSA and 20 mM glucose for 10-15 minutes at 37° C.\nAll corresponding GPU single particle tracking and track elongation, squared displacement, mean square displacement, correlated motion, fiducial data acquisition and image registration and three-state hidden Markov Model used in this study have been described in detail previously (Low-Nam et al, 2011, Nat Struct Mol Biol 18:1244-1249)."}, "[2]": {"test_system": "pre-BCR signaling in 697 cells", "assay": "Western blotting of pre-BCR tonic signaling (phospho-CD79a, phospho-Syk) with pervanadate", "assay_type": "cell-based, human", "settings": "for accumulation of phospho-Syk (Syk phosphorylation): in the presence of pervanadate, 30-minute treatment", "protocol": "(§1) Results in FIG. 8 evaluate the ability of anti-VpreB Fabs, as well as inhibitors directed at pre-BCR downstream signaling partners Lyn, Syk and SHIP1 (INPP5D), to block tonic signaling from the pre-BCR.\n(§2) After stated incubation +/− inhibitors or crosslinking agents, cells were washed with ice-cold PBS and held for 15 minutes on ice in Tris-based lysis buffer, with 1% NP-40 and protease and phosphatase inhibitors (ThermoFisher Scientific, Waltham, Mass.). For effects of inhibitors on BCL6 expression, treatments were carried out for 24 hours. Lysates were clarified by centrifugation at 14,000×g for 10 minutes at 4° C., then added to Laemmli's Reducing buffer. Proteins were separated on SDS-polyacrylamide and transferred to nitrocellulose membranes. After blocking with TBST (Sigma-Aldrich, St. Louis, Mo.) with 5% BSA (Sigma-Aldrich, St. Louis, Mo.), blots were probed with antibodies specific to pCD79a (Tyr 182) (Cell Signaling Technology, Inc., Danvers, Mass.), pSyk (Tyr348) (Novus Biologicals LLC, Littleton, Colo.), pSyk (Tyr 352) (Cell Signaling Technology, Inc., Danvers, Mass.) or BCL6 (Santa Cruz Biotechnology, Inc., Dallas, Tex.). Antibodies to β-Actin (Sigma-Aldrich, St. Louis, Mo.) were used as loading controls.\nBCP-ALL cells were treated with pervanadate solution as previously described (Imbert et al., 1994, Biochem J297 (Pt 1):163-173; Smrz et al., 2008, J Biol Chem 283:10904-10918). Data in FIG. 8 are reported using a linear range normalization from 0 to 1.0, whereby tonic without pervanadate treatment response was set to 0 and tonic pervanadate treatment was set to 1.0: […]"}, "697 cells": {"test_system": "697 cells", "assay": "flow cytometry apoptosis assay (Annexin-V / 7-AAD), 697 cells", "assay_type": "cell-based, human", "settings": "for apoptosis in cells treated with vincristine over a range of doses: inhibitor in combination with vincristine", "protocol": "Since blocking pre-BCR pro-survival signaling may be advantageous for chemo-sensitization, one can compare apoptosis alone or in combination with a sub-lethal dose of a chemotherapeutic such as, for example, vincristine or daunorubicin.\nCurves were fit using sigmoidal dose-response curve using MATLAB curve fitting toolbox (The MathWorks, Inc., Natick, Mass.).\nLeukemia cell apoptosis was measured based upon binding to Annexin-V-FITC (BioLegend, Inc., San Diego, Calif.) and loss of cell viability measured by 7-AAD labeling (BioLegend, Inc., San Diego, Calif.), according to manufacturer's procedures. For receptor-binding experiments, cells were incubated under saturating conditions for 1.5 hours on ice in PBS with anti-CD79b-APC antibody (BioLegend, Inc., San Diego, Calif.) or anti-VpreB-PE antibody (BioLegend, Inc., San Diego, Calif.). […] (Bangs Laboratories, Inc., Fishers, Ind.) beads with anti-mouse Fc antibody according to manufacturer's instruction. Dissociation constants were estimated with nonlinear regression analysis under KD controlled conditions as described (Drake, A. W., and S. L. Klakamp, 2007, J Immunol Methods 318:147-152). All flow cytometry data collection was conducted on the […] platform (IntelliCyt Corp., Albuquerque, N. Mex.; Edwards et al., 2009, Methods Mol Biol 486:151-165) and analyzed with the FLOWJO Software Suite (FlowJo, LLC, Ashland, Oreg.)."}, "[3]": {"test_system": "patient #280 BCP-ALL blasts", "assay": "flow cytometry apoptosis assay (Annexin-V / 7-AAD), patient #280 cells", "assay_type": "cell-based, human", "settings": "patient #280 blasts, single agent, 24-hour culture (dasatinib 10 μM)", "protocol": "Blockade of pre-BCR homotypic self-association can sensitize patient cells to vincristine. […] Blasts from patient #280 also were very sensitive to dasatinib as a single agent (80% 7-AAD/Annexin-V positive after 24-hour culture). Longer incubations were not feasible, since cells from this patient were 40% 7-AAD positive when incubated with no drug or in the presence of vincristine up to 5 ng/ml.\nLeukemia cell apoptosis was measured based upon binding to Annexin-V-FITC (BioLegend, Inc., San Diego, Calif.) and loss of cell viability measured by 7-AAD labeling (BioLegend, Inc., San Diego, Calif.), according to manufacturer's procedures. For receptor-binding experiments, cells were incubated under saturating conditions for 1.5 hours on ice in PBS with anti-CD79b-APC antibody (BioLegend, Inc., San Diego, Calif.) or anti-VpreB-PE antibody (BioLegend, Inc., San Diego, Calif.). Flow results were calibrated using QUANTUM SIMPLY CELLULAR (Bangs Laboratories, Inc., Fishers, Ind.) beads with anti-mouse Fc antibody according to manufacturer's instruction. […] All flow cytometry data collection was conducted on the HYPERCYT platform (IntelliCyt Corp., Albuquerque, N. Mex.; Edwards et al., 2009, Methods Mol Biol 486:151-165) and analyzed with the FLOWJO Software Suite (FlowJo, LLC, Ashland, Oreg.)."}, "[4]": {"test_system": "BCL6 expression in 697 cells", "assay": "Western blotting of BCL6 expression in 697 cells", "assay_type": "cell-based, human", "settings": "overnight (24 hours) treatment", "protocol": "as §1, §2"}, "[5]": {"test_system": "BCL6 levels in patient #280 cells", "assay": "Western blotting of BCL6 levels in patient #280 cells", "assay_type": "cell-based, human", "settings": "24 hours", "protocol": "FIG. 14. Data showing that pre-BCR signaling contributes to survival of some BCP-ALL blasts. Data are shown for patient #280. A) Increase in apoptosis (Annexin labeling) and loss of cell viability (7AAD labeling) after prolonged incubation with dasatinib (10 μM) alone or in combination with vincristine over doses of 0.1 ng/ml to 100 ng/ml. B) Increase in apoptosis after 24-hour incubation of #280 patient cells with α-VpreB Fab (5 μM) alone or in combination with low dose vincristine (10 ng/ml).\nAfter stated incubation +/− inhibitors or crosslinking agents, cells were washed with ice-cold PBS and held for 15 minutes on ice in Tris-based lysis buffer, with 1% NP-40 and protease and phosphatase inhibitors (ThermoFisher Scientific, Waltham, Mass.). For effects of inhibitors on BCL6 expression, treatments were carried out for 24 hours. Lysates were clarified by centrifugation at 14,000×g for 10 minutes at 4° C., then added to Laemmli's Reducing buffer. Proteins were separated on SDS-polyacrylamide and transferred to nitrocellulose membranes. […]"}, "pre-BCR on 697 cells [6]": {"target": "T2, pre-BCR on 697 cells (Homo sapiens, UniProt P12018+P15814)", "T2 construct": "endogenous in cells; host or cells: 697 (BCP-ALL cell line)", "T2 sequence (P15814 38-213, one chain of several)": "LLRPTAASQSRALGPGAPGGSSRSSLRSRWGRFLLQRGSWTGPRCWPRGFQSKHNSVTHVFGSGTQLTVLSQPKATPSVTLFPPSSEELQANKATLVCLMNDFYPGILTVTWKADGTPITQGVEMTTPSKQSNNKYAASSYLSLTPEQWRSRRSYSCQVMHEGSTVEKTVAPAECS", "assay": "fluorescence imaging of pre-BCR clustering by labeled galectin-1", "assay_type": "cell-based", "settings": "Alexa 555-conjugated galectin-1 10 μM, within five minutes"}},
  "data": [
    {"molecule": "COc1ccc(-c2cc3nccn3c(Nc3ncccc3C(N)=O)n2)cc1OC", "note": "[Bay-61-3606]", "values": [
      {"measurement": "overall diffusion (mobility) of pre-BCR", "setting": "pre-BCR on 697 cells [1]", "result": "overall increased mobility"},
      {"measurement": "diminished accumulation of Syk PY352", "setting": "[2]; pervanadate-treated", "result": "approximately 20%"},
      {"measurement": "apoptosis in cells treated with vincristine over a range of doses", "setting": "697 cells", "result": "potentiate apoptosis"}
    ]},
    {"molecule": "CC[C@]1(O)C[C@H]2CN(CCc3c([nH]c4ccccc34)[C@@](C(=O)OC)(c3cc4c(cc3OC)N(C=O)[C@H]3[C@@](O)(C(=O)OC)[C@H](OC(C)=O)[C@]5(CC)C=CCN6CC[C@]43[C@@H]65)C2)C1", "note": "[vincristine]", "values": [
      {"measurement": "apoptotic cells", "setting": "697 cells; vincristine 10 ng/ml, with or without VpreB Fabs (5 μM)", "result": 69.9, "unit": "%"}
    ]},
    {"molecule": "Cc1nc(Nc2ncc(C(=O)Nc3c(C)cccc3Cl)s2)cc(N2CCN(CCO)CC2)n1", "note": "[dasatinib]", "values": [
      {"measurement": "7-AAD/Annexin-V positive", "setting": "[3]", "result": 80, "unit": "%"}
    ]},
    {"molecule": "CC(C)CCC[C@@H](C)[C@H]1CC[C@H]2[C@@H]3CC[C@H]4C[C@H](N)CC[C@]4(C)[C@H]3CC[C@]12C", "note": "[3AC, 3-a-aminocholestane]", "values": [
      {"measurement": "BCL6 expression", "setting": "[4]", "result": "completely repressed"},
      {"measurement": "accumulation of phospho-Syk (Syk phosphorylation)", "setting": "[2]", "result": "slightly elevated"},
      {"measurement": "BCL6 levels", "setting": "[5]", "result": "marked decline"},
      {"measurement": "apoptosis in cells treated with vincristine over a range of doses", "setting": "697 cells", "result": "potentiate apoptosis"}
    ]},
    {"molecule": "galectin-1: recombinant human galectin-1, crosslinks pre-BCR via surrogate light chain", "values": [
      {"measurement": "immobile fraction of pre-BCR (D<0.05 μm^2/sec)", "setting": "pre-BCR on 697 cells [1]", "result": "A large fraction of pre-BCR become essentially immobile"},
      {"measurement": "overall diffusion (mobility) of pre-BCR", "setting": "pre-BCR on 697 cells [1]", "result": "far less mobile"},
      {"measurement": "clustering of the pre-BCR", "setting": "pre-BCR on 697 cells [6]", "result": "marked clustering of the pre-BCR"}
    ]},
    {"molecule": "C[C@@H]1CCN(C(=O)CC#N)C[C@@H]1N(C)c1ncnc2[nH]ccc12", "note": "[tofacitinib]", "values": [
      {"measurement": "BCL6 expression", "setting": "[4]", "result": "elevated levels"},
      {"measurement": "overall diffusion (mobility) of pre-BCR", "setting": "pre-BCR on 697 cells [1]", "result": "not Jak (tofacitinib) results in a global increase"},
      {"measurement": "accumulation of phospho-Syk (Syk phosphorylation)", "setting": "[2]", "result": "did not alter"},
      {"measurement": "apoptosis in cells treated with vincristine over a range of doses", "setting": "697 cells", "result": "potentiate apoptosis"}
    ]}
  ]
}
